Reference: patent US20250002489A1, “BIFUNCTIONAL COMPOUNDS FOR DEGRADING ITK VIA UBIQUITIN PROTEOSOME PATHWAY” (NURIX THERAPEUTICS, INC., priority 2021, published 2025)

Target: T1, ITK (Jurkat or Molt4 cells) (Homo sapiens, UniProt Q08881)
T1 construct: either human Jurkat (Clone E6-1 ATCC TIB-152) or Motl4 (ATCC CRL-1552), were plated; endogenous in cells; host or cells: Jurkat Clone E6-1 (ATCC TIB-152) or Molt4 (ATCC CRL-1552)
T1 sequence (Q08881 1-620): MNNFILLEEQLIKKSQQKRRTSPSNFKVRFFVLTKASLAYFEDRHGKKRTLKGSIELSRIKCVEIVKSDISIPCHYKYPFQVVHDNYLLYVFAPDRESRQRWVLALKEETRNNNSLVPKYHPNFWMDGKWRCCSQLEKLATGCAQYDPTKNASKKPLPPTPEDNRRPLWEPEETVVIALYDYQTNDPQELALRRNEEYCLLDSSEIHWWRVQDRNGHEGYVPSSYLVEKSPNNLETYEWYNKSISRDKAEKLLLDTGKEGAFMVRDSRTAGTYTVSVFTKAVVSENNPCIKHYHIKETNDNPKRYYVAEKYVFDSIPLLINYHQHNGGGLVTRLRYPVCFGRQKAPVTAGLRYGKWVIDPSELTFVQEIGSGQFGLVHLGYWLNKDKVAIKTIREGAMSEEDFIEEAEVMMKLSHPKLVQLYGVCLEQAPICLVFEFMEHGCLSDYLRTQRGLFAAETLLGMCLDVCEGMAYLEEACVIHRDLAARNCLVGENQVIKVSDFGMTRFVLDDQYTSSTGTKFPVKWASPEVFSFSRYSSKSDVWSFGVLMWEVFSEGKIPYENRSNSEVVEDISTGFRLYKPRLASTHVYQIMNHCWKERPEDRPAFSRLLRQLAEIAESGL
Test: ITK Degradation MSD (Meso Scale Discovery) Assay
Format: cell-based
Settings: 4 or 6 hrs incubation; for DC50: best fit IC50 used as DC50
Description: Compound dilution series (7-point, 5-fold dilutions in DMSO, rows B—H with replicate in Column 1/2, 3/4, 5/6, 7, and 8 at 2000× the final required concentrations were prepared in 96-well plate (Falcon, cat. no. 353077). Row A, Column 1-8 were control DMSO. The 2000× solutions ranged from 2 mM to 128 nM (final assay concentration range 1 μM to […]). The 2000×solutions were added to cells in 10 μL volume, for a final DMSO concentration of 0.5% and final assay compound concentration of 1×. For the cells, either human Jurkat (Clone E6-1 ATCC TIB-152) or Motl4 (ATCC CRL-1552), were plated at 1×10^6 cells/mL, 100 μL/well ([…]) in complete RPMI (10% FBS, 1% L-glutamine). The cells were incubated with compounds 26-29 for 4 or 6 hrs at 32° C./6% CO2.
Following incubation, plates were centrifuged at 1200 rpm for 5 min. Supernatant was removed and 50 μL of cell lysis buffer (MSD Tris lysis buffer (R60TX), complete Mini EDTA-free protease inhibitor (Sigma 11836170001), Protease Inhibitor Cocktail (Sigma, P2714), Phosphatase Inhibitor Cocktail 2 and 3 (Sigma, P5726 and P0044), Benzonase (Sigma, E1014)) was added to each well. Plate was sealed and shook at 4° C. for 30 min. Plate was centrifuged and 45 μL was removed for plate assay.
Assay plate preparation: Meso Scale Discovery (MSD) multi-array sm spot 96-well plates (Goat anti-Rabbit L^45-RA), were blocked with 3% BSA blocking buffer (3% Bovine Serum Albumin (Sigma A3059)+TBS 0.2% Tween-20) for one hour with gentle rocking at room temperature. Plate was then washed with 200 μL of 1×TBST (TBS 0.2% Tween-20) three times. After the last wash, all liquid was removed and 50 μL per well of capture antibody (abcam ITK Y402-ab32507) was added to plate at a 1:1000 dilution in blocking buffer (see above). Plate was sealed and rocked at room temperature for 2 hrs. Plate was then washed three times with 200 μL of 1×TBST. After the last wash, all liquid was removed and 45 μL of cell lysate (from above) was added to plate. Plate was sealed and rocked overnight at 4° C. The next day, cell lysates were removed, and assay plate was washed three times with 200 μL of 1×TBST. After the last wash, liquid was removed and detection antibody (CST ITK (2F12) #2380) was added at 50 μL per well at a dilution of 1:1000 in blocking buffer. Plate was sealed and rocked at room temperature for 2 hrs. Plate was washed three times with 200 μL of 1×TBST. After the last wash, all liquid was removed, MSD […] sulfo tag (R32AC-1) was diluted to 1:1000 in blocking buffer. 50 μL was added to each well on the plate. Plate was sealed and incubated at room temperature for one hour. Plate was washed three times with 200 μL of 1×TBST. After last wash, all liquid was removed and 150 μL of 1×MSD Read Buffer T (R92PC) was then added to each well for ECL read out.
For reading ECL signal, plate was read on a Meso Scale Discovery (MSD) MESO Sector S 600 plate reader. Percent ITK was then calculated as described below.
Percent ITK remaining per sample was calculated as follows: […]
Using Graphpad Prism, % ITK remaining values were plotted as a function of compound concentration. To determine DC50 and Dmax values, resulting curves were fit to the Prism curve-fitting equation “log(inhibitor) vs response−Variable slope (four parameters)” (reported best fit value IC50 used as DC50).

| Structure (SMILES) | Dmax | DC50 |
| --- | --- | --- |
| Cc1ncsc1-c1ccc([C@H](C)NC(=O)[C@@H]2C[C@@H](O)CN2C(=O)[C@@H](NC(=O)CC2CCN(c3ccc(C(=O)N4CC([C@@H](c5ccccc5)n5cc(NC(=O)c6n[nH]c7c6C[C@@H]6C(F)(F)[C@]6(C)C7)cn5)C4)nc3)CC2)C(C)(C)C)cc1 [Compound 22, (4aS,5aR)-5,5-difluoro-N-(1-((S)-(1-(5-(4-(2-(((S)-1-((2S,4R)-4-hydroxy-2-(((S)-1-(4-(4-methylthiazol-5-yl)phenyl)ethyl)carbamoyl)pyrrolidin-1-yl)-3,3-dimethyl-1-oxobutan-2-yl)amino)-2-oxoethyl)piperidin-1-yl)picolinoyl)azetidin-3-yl)(phenyl)methyl)-1H-pyrazol-4-yl)-5a-methyl-1,4,4a,5,5a,6-hexahydrocyclopropa[f]indazole-3-carboxamide] | 88% | 3.78 nM |
| Cc1ncsc1-c1ccc([C@H](C)NC(=O)[C@@H]2C[C@@H](O)CN2C(=O)[C@@H](NC(=O)c2ccc(N3CCC(CC(=O)N4CC([C@@H](c5ccccc5)n5cc(NC(=O)c6n[nH]c7c6C[C@@H]6C(F)(F)[C@]6(C)C7)cn5)C4)CC3)cn2)C(C)(C)C)cc1 [Compound 23, (4aS,5aR)-5,5-difluoro-N-(1-((S)-(1-(2-(1-(6-(((S)-1-((2S,4R)-4-hydroxy-2-(((S)-1-(4-(4-methylthiazol-5-yl)phenyl)ethyl)carbamoyl)pyrrolidin-1-yl)-3,3-dimethyl-1-oxobutan-2-yl)carbamoyl)pyridin-3-yl)piperidin-4-yl)acetyl)azetidin-3-yl)(phenyl)methyl)-1H-pyrazol-4-yl)-5a-methyl-1,4,4a,5,5a,6-hexahydrocyclopropa[f]indazole-3-carboxamide] | 91% | 13.3 nM |
| Cc1ncsc1-c1ccc([C@H](C)NC(=O)[C@@H]2C[C@@H](O)CN2C(=O)[C@@H](NC(=O)CN2CCN(CC(=O)N3CC([C@@H](c4ccccc4)n4cc(NC(=O)c5n[nH]c6c5C[C@@H]5C(F)(F)[C@]5(C)C6)cn4)C3)CC2)C(C)(C)C)cc1 [Compound 24, (4aS,5aR)-5,5-difluoro-N-(1-((S)-(1-(2-(4-(2-(((S)-1-((2S,4R)-4-hydroxy-2-(((S)-1-(4-(4-methylthiazol-5-yl)phenyl)ethyl)carbamoyl)pyrrolidin-1-yl)-3,3-dimethyl-1-oxobutan-2-yl)amino)-2-oxoethyl)piperazin-1-yl)acetyl)azetidin-3-yl)(phenyl)methyl)-1H-pyrazol-4-yl)-5a-methyl-1,4,4a,5,5a,6-hexahydrocyclopropa[f]indazole-3-carboxamide] | 93% | 92.7 nM |
| Cc1ncsc1-c1ccc(CNC(=O)[C@@H]2C[C@@H](O)CN2C(=O)[C@@H](NC(=O)C2(F)CC2)C(C)(C)C)c(OCC(=O)N2CC([C@@H](c3ccccc3)n3cc(NC(=O)c4n[nH]c5c4C[C@@H]4C(F)(F)[C@]4(C)C5)cn3)C2)c1 [Compound 32, (4aS,5aR)-5,5-difluoro-N-(1-((S)-(1-(2-(2-(((2S,4R)-1-((S)-2-(1-fluorocyclopropane-1-carboxamido)-3,3-dimethylbutanoyl)-4-hydroxypyrrolidine-2-carboxamido)methyl)-5-(4-methylthiazol-5-yl)phenoxy)acetyl)azetidin-3-yl)(phenyl)methyl)-1H-pyrazol-4-yl)-5a-methyl-1,4,4a,5,5a,6-hexahydrocyclopropa[f]indazole-3-carboxamide] | 63.4% | 20.2 nM |
| Cc1ncsc1-c1ccc(CNC(=O)[C@@H]2C[C@@H](O)CN2C(=O)[C@@H](NC(=O)C2(F)CC2)C(C)(C)C)c(OCCCC(=O)N2CC([C@@H](c3ccccc3)n3cc(NC(=O)c4n[nH]c5c4C[C@@H]4C(F)(F)[C@]4(C)C5)cn3)C2)c1 [Compound 33, (4aS,5aR)-5,5-difluoro-N-(1-((S)-(1-(4-(2-(((2S,4R)-1-((S)-2-(1-fluorocyclopropane-1-carboxamido)-3,3-dimethylbutanoyl)-4-hydroxypyrrolidine-2-carboxamido)methyl)-5-(4-methylthiazol-5-yl)phenoxy)butanoyl)azetidin-3-yl)(phenyl)methyl)-1H-pyrazol-4-yl)-5a-methyl-1,4,4a,5,5a,6-hexahydrocyclopropa[f]indazole-3-carboxamide] | 94.5% | 27.9 nM |

Results, then the molecule that gave them:

| Dmax | DC50 | Structure (SMILES) |
| --- | --- | --- |
| 86.3% | 38.8 nM | Cc1ncsc1-c1ccc([C@H](C)NC(=O)[C@@H]2C[C@@H](O)CN2C(=O)[C@@H](NC(=O)CCOCCOCCC(=O)N2CC([C@@H](c3ccccc3)n3cc(NC(=O)c4n[nH]c5c4C[C@@H]4C(F)(F)[C@]4(C)C5)cn3)C2)C(C)(C)C)cc1 [Compound 30, (4aS,5aR)-5,5-difluoro-N-(1-((S)-(1-(3-(2-(3-(((S)-1-((2S,4R)-4-hydroxy-2-(((S)-1-(4-(4-methylthiazol-5-yl)phenyl)ethyl)carbamoyl)pyrrolidin-1-yl)-3,3-dimethyl-1-oxobutan-2-yl)amino)-3-oxopropoxy)ethoxy)propanoyl)azetidin-3-yl)(phenyl)methyl)-1H-pyrazol-4-yl)-5a-methyl-1,4,4a,5,5a,6-hexahydrocyclopropa[f]indazole-3-carboxamide] |
| 88.8% | 30.1 nM | Cc1ncsc1-c1ccc([C@H](C)NC(=O)[C@@H]2C[C@@H](O)CN2C(=O)[C@@H](NC(=O)c2ccc(N3CCC(C(=O)N4CC([C@@H](c5ccccc5)n5cc(NC(=O)c6n[nH]c7c6C[C@@H]6C(F)(F)[C@]6(C)C7)cn5)C4)CC3)cn2)C(C)(C)C)cc1 [Compound 31, (4aS,5aR)-5,5-difluoro-N-(1-((S)-(1-(1-(6-(((S)-1-((2S,4R)-4-hydroxy-2-(((S)-1-(4-(4-methylthiazol-5-yl)phenyl)ethyl)carbamoyl)pyrrolidin-1-yl)-3,3-dimethyl-1-oxobutan-2-yl)carbamoyl)pyridin-3-yl)piperidine-4-carbonyl)azetidin-3-yl)(phenyl)methyl)-1H-pyrazol-4-yl)-5a-methyl-1,4,4a,5,5a,6-hexahydrocyclopropa[f]indazole-3-carboxamide] |
| 94% | 10.8 nM | Cc1ncsc1-c1ccc(CNC(=O)[C@@H]2C[C@@H](O)CN2C(=O)[C@@H](NC(=O)C2(F)CC2)C(C)(C)C)c(OCCCCC(=O)N2CC([C@@H](c3ccccc3)n3cc(NC(=O)c4n[nH]c5c4C[C@@H]4C(F)(F)[C@]4(C)C5)cn3)C2)c1 [Compound 34, (4aS,5aR)-5,5-difluoro-N-(1-((S)-(1-(5-(2-(((2S,4R)-1-((S)-2-(1-fluorocyclopropane-1-carboxamido)-3,3-dimethylbutanoyl)-4-hydroxypyrrolidine-2-carboxamido)methyl)-5-(4-methylthiazol-5-yl)phenoxy)pentanoyl)azetidin-3-yl)(phenyl)methyl)-1H-pyrazol-4-yl)-5a-methyl-1,4,4a,5,5a,6-hexahydrocyclopropa[f]indazole-3-carboxamide] |
